{"source": "patent US20240408112A1", "about": "“METHOD FOR PREVENTING OR TREATING PULMONARY ARTERIAL HYPERTENSION BY USING 7-DEHYDROCHOLESTEROLS OR SALTS, OXIDES, METABOLITES, OR DERIVATIVES THEREOF” (EXCELSIOR PHARMATECH LABS., priority 2023, published 2024)", "key": {"[1]": {"tested_on": "human pulmonary artery endothelial cells (hPAEC)", "assay": "BrdU cell proliferation assay, 0.1% FBS, 100 pM TGF-β, hPAEC", "type": "cell-based", "details": "hPAEC, 100 pM TGF-β, 0.1% FBS", "experimental": "(§1) BrdU (5-bromo-2-deoxyuridine) cell proliferation assay (BrdU assay)\n(§2) A 48-well plate was used, and 1.5×10^4 cells were implanted in each well. After 24 hours, the medium was changed to serum-free culture medium and synchronized for 24 hours. A 2-fold concentration of the compound in serum-free culture medium is prepared and the cells were pretreated for 1 hour. Then, the same volume of culture medium containing 20% fetal bovine serum (FBS) was added to dilute the compound. The final concentration was 10% FBS culture medium and 1 times the concentration of the compound. In the experimental group that added TGF-β, the same volume of TGF-β culture medium containing 10 ng/mL was added, with a final concentration of 5 ng/mL TGF-β and 1 times the concentration of the compound, and in the experimental group added with TGF-β, the entire process was conducted in culture medium containing 0.1% serum. Then, BrdU reagent was added about 6 hours later, and the cells were collected the next day for enzyme-linked immunosorbent assay (ELISA) analysis, the compound treatment time was about 24 hours, and the BrdU treatment time was about 18 hours.\n(§3) Five compounds to be tested were screened by cell survival assay (MTT assay) and BrdU (5-bromo-2-deoxyuridine) cell proliferation assay, and the information of these compounds was listed in Table 1 below. Tables 2 and 3 respectively listed the growth inhibitions of on human pulmonary artery endothelial cells (hPAEC), human pulmonary artery smooth muscle cells (hPASMC), normal rat pulmonary artery smooth muscle cells (rPASMC, as the control group, represented by “CON”), and rat pulmonary artery smooth muscle cells (represented by “MCT”), by the five compounds to be tested under the conditions of 10% FBS, 0.1% FBS and 100 pM TGF-β."}, "[2]": {"tested_on": "normal rat pulmonary artery smooth muscle cells (rPASMC CON)", "assay": "BrdU cell proliferation assay, 10% FBS, rPASMC CON", "type": "cell-based", "experimental": "as §1, §2, §3"}, "[3]": {"tested_on": "human pulmonary artery smooth muscle cells (hPASMC)", "assay": "BrdU cell proliferation assay, 0.1% FBS, 100 pM TGF-β, hPASMC", "type": "cell-based", "details": "hPASMC, 100 pM TGF-β, 0.1% FBS", "experimental": "as §1, §2, §3"}, "[4]": {"tested_on": "human pulmonary artery smooth muscle cells (hPASMC)", "assay": "BrdU cell proliferation assay, 10% FBS, hPASMC", "type": "cell-based", "experimental": "as §1, §2, §3"}, "[5]": {"tested_on": "normal rat pulmonary artery smooth muscle cells (rPASMC CON)", "assay": "BrdU cell proliferation assay, 0.1% FBS, 100 pM TGF-β, rPASMC CON", "type": "cell-based", "details": "100 pM TGF-β", "experimental": "as §1\nas §2, with “with a final concentration of 5 ng/mL TGF-β and 1 times the concentration” left out\nFive compounds to be tested were screened by cell survival assay (MTT assay) and BrdU (5-bromo-2-deoxyuridine) cell proliferation assay, and the information of these compounds was listed in Table 1 below."}, "[6]": {"tested_on": "monocrotaline induced pulmonary arterial hypertension rat", "assay": "Monocrotaline-induced pulmonary arterial hypertension rat model, Example 3 (7-DHC vs macitentan)", "type": "in vivo", "details": "for Right ventricle pressure (RVP): 25th day after monocrotaline induction, MCT rats 28.97 mmHg; for Arterial gas analysis PaO2 and PaCO2, in words: between groups CON, MCT and treated; for Thickening of pulmonary arteries, in words: p<0.001, vs MCT rats (exceeded 65%); for Base excess (BE) value: MCT group −6, normal −2 to +2; for Average right ventricle hypertrophy ratio (RV/S+LV): MCT rats 71.64%, normal rats 26.7%", "text": "Pulmonary arterial hypertension animal experimental model\nThe present disclosure utilizes injection of monocrotaline to induce symptoms of pulmonary arterial hypertension in rats to establish a pulmonary arterial hypertension animal experimental model suitable for screening test drugs.\nThe diagnostic method of clinical pulmonary arterial hypertension standards is right heart catheterization, which is defined as mean pulmonary arterial pressure (mPAP) greater than or equal to 20 mmHg. The diagnostic criteria for pulmonary arterial hypertension, in addition to an increase in mean pulmonary arterial pressure, need to be combined with pulmonary vascular resistance (PVR) greater than 3 Wood unit. The right ventricle pressure (RVP) and systemic mean blood pressure (mbp) in rats with pulmonary arterial hypertension were measured by Millar Model PCU200 pressure system, and the heart rate (HR) was also monitored at the same time. After measuring the hemodynamic data, the arterial blood was extracted from the carotid artery of the pulmonary arterial hypertension rat, and the Abbott blood oximeter (i-STAT) combined with Abbott's special chip cartridge (i-STAT Cartridge G3+) was used to measure arterial gas analysis data such as pH, PaO2, PaCO2, HCO3 and base excess (BE) value in quantitative whole blood samples. The normal pH value is between 7.35 and 7.45, and the pH value indicates whether the experimental animal has the condition of acidemia, alkalemia, acidosis or alkalosis. The normal value of PaO2 is between 80 and 100 mmHg, which reflects the effectiveness of gas exchange (ventilation/perfusion). The normal value of PaCO2 is between 35 and 45 (such as 38 and 42) mmHg, which can evaluate the effectiveness of alveolar ventilation. The acid produced by food, tissue decomposition, inflammation and hypoxia rely on the lungs to excrete volatile acid CO2 (short-term) and the bicarbonate (HCO3^−) produced by the kidneys (long-term) to neutralize non-volatile acids, while the normal value of bicarbonate hydrogen radical (HCO3^−) is between 22 and 26 meq/L. BE is the base excess value, its normal value ranges from −2 to +2, the negative value represents the degree of alkali ion deficiency in the blood, a negative BE value (−) that is too high indicates metabolic acidosis, and a positive value (+) that is too high is metabolic alkalosis. At the end of the experiment, the rats were sacrificed and their hearts were removed and the left and right ventricles were separated and weighed (RV)/(S)+(LV).\nMonocrotaline was utilized to induce pulmonary arterial hypertension rat animal model, intraperitoneal injection (IP) TGF-β receptor inhibitor 7-DHC (039) and oral administration of macitentan (soluble in methylcellulose), 7-DHC (039) was divided into two groups according to the dosage: 10 mg/kg or 20 mg/kg, and the dosage of macitentan group was 30 mg/kg."}}}
{"smiles": "CC(C)CCCC(C)C1CCC2C3=CC=C4CC(O)CCC4(C)C3CCC21C", "note": "(stereo not drawn) [Code 039, 7-DHC]", "values": [{"measurement": "EC50", "setting": "[1]; Homo sapiens, Endothelial cell, read-out: EC50", "result": 23, "unit": "µM"}, {"measurement": "Inhibition of cell growth (in words)", "setting": "[1]; 25 μM, FIG. 3", "result": "inhibition of cell growth"}, {"measurement": "EC50", "setting": "[2]; Rattus norvegicus, read-out: EC50 (concentration for 50% of maximal effect)", "result": 38, "unit": "µM"}, {"measurement": "Inhibition of cell growth (in words)", "setting": "[2]; rPASMC CON1, 10% FBS, FIG. 2", "result": "significant inhibitory effects"}, {"measurement": "EC50", "setting": "[3]; Homo sapiens, read-out: EC50", "result": 24, "unit": "µM"}, {"measurement": "Inhibition of cell growth (in words)", "setting": "[3]; 25 μM, FIG. 3", "result": "inhibition of cell growth"}, {"measurement": "EC50", "setting": "[4]; Homo sapiens, read-out: EC50 (concentration for 50% of maximal effect)", "result": 53, "unit": "µM"}, {"measurement": "Inhibition of cell growth (in words)", "setting": "[4]; hPASMC, 10% FBS, FIG. 2", "result": "inhibition of cell growth can also be observed"}, {"measurement": "EC50", "setting": "[5]; Rattus norvegicus, CON (normal rPASMC), 0.1% FBS, read-out: EC50", "result": 30, "unit": "µM"}, {"measurement": "Inhibition of cell growth (in words)", "setting": "[5]; rPASMC CON3, 0.1% FBS, 25 μM, FIG. 3", "result": "significant inhibitory effects"}, {"measurement": "Right ventricle pressure (RVP)", "setting": "[6]; 10 mg/kg IP", "result": 17.61, "unit": "mmHg"}, {"measurement": "Arterial gas analysis PaO2 and PaCO2, in words", "setting": "[6]; 10 mg/kg IP", "result": "no significant difference"}, {"measurement": "Thickening of pulmonary arteries, in words", "setting": "[6]; 10 mg/kg IP", "result": "significantly reduced"}, {"measurement": "Base excess (BE) value", "setting": "[6]; 10 mg/kg IP", "result": "−3"}, {"measurement": "Average right ventricle hypertrophy ratio (RV/S+LV)", "setting": "[6]; 10 mg/kg IP", "result": 53.96, "unit": "%"}, {"measurement": "Activity of the rats", "setting": "[6]; 20 mg/kg IP", "result": "did not affect"}, {"measurement": "Survival rate", "setting": "[6]; 20 mg/kg IP", "result": 100, "unit": "%"}, {"measurement": "Weight of rats", "setting": "[6]; 20 mg/kg IP", "result": "decreased significantly"}, {"measurement": "Right ventricle pressure (RVP)", "setting": "[6]; 20 mg/kg IP", "result": 19.96, "unit": "mmHg"}, {"measurement": "Arterial gas analysis PaO2 and PaCO2, in words", "setting": "[6]; 20 mg/kg IP", "result": "no significant difference"}, {"measurement": "Thickening of pulmonary arteries, in words", "setting": "[6]; 20 mg/kg IP", "result": "significantly reduced"}, {"measurement": "Base excess (BE) value", "setting": "[6]; 20 mg/kg IP", "result": "−1.4"}, {"measurement": "Average right ventricle hypertrophy ratio (RV/S+LV)", "setting": "[6]; 20 mg/kg IP", "result": 62.97, "unit": "%"}, {"measurement": "Systemic average blood pressure and heartbeat, in words", "setting": "[6]; 10 or 20 mg/kg IP", "result": "did not significantly reduce"}]}
